Reference: US9034846B2, “Use of cyclodextrin for treatment and prevention of bronchial inflammatory diseases” (UNIVERSITE DE LIEGE, priority 2004, dated 2015)

Tests used:
[1] = tested on: CXCL-1; assay: CXCL-1 ELISA in lung protein extracts, OVA-induced inflammation model; assay type: in vivo, mouse; conditions: aerosolized 15 mM, vs placebo-exposed mice, FIG. 12
Description: In ovalbumin (OVA)-induced inflammation model, mice were immunized by intraperitoneal injection of OVA (10 μg) (Sigma Aldrich, Schnelldorf, Germany) and aluminium hydroxyde on days 0 and 7. From days 21 to 25, mice were exposed to inhalation of 1% OVA or PBS (phosphate buffer saline) for 30 minutes. Airway hyperresponsiveness was measured on day 26 before sacrifice. Mice were either exposed to aerosolized hydroxypropyl-beta-cyclodextrin (15 mM) or PBS for […] 6 hours before allergen exposure.
After sacrifice, thorax was opened and the right lungs were excised and snap frozen in liquid nitrogen for protein extraction. The left lung was insufflated at constant pressure with 4% paraformaldehyde and embedded in paraffin for further histological analysis. A peribronchial inflammation score was applied on each hematoxylin-eosin stained slide as previously reported (Cataldo et al Am J Pathol 2002). A value from 0 to 2 was adjudged to each bronchus. […] Six bronchi per mice were counted and statistical analysis was performed by using GraphPad Program. […] ELISA for CXCL-1 on lung protein extracts were assessed using antibodies from R&D Systems and the R&D Duoset® Elisa Development kit (R&D Systems, Minneapolis, Minn., USA).

[2] = tested on: Eotaxin; assay: Eotaxin ELISA in lung protein extracts, OVA mouse model; assay type: in vivo; conditions: all doses tested, compared to placebo; FIG. 7a
Description: (§1) In order to study modulation of airway inflammation, males BALB/c mice of 6 to 8 weeks old were sensitized by intraperitoneal injection of 10 μg ovalbumin (OVA) (Sigma Aldrich, Schnelldorf, Germany) emulsified in aluminum hydroxyde (AlumInject; Perbio, Erembodegem, Belgium) on days 1 and 8. Mice were subsequently exposed to allergens by daily inhalation of an aerosol of OVA 1%, for 30 minutes, generated by ultrasonic nebulizer (Devilbiss 2000), from day 21 to 27. Mice were subjected to inhalation of β-CD, HP-β-CD HP 1, 7.5, 50 mM and HP-β-CD 50 mM 30 minutes before OVA inhalation. Mice were sacrificed performed on day 28 as previously reported by Cataldo and al in Am. J. Pathol 2002; 161(2):491-498.
The left lung was crushed using a Mikro-Dismembrator (Braun Biotech International, Gmbh Melsungen, Germany). For proteins extraction, the crushed lung tissue was incubated overnight at 4° C. in a solution containing 2M urea, 1M NaCl and 50 mM Tris (pH 7.5) and subsequently centrifuged 15 minutes at 16.000×g. […]
(§2) Eotaxin and IL-13 levels were assessed using commercial ELISAs (R&D systems, Abingdon, UK). Eotaxin was measured by incubation in a wheel coated with a primary antibody specifically dedicated to the recognition of the protein and after rinsing, a second antibody against eotaxin, coupled with horse radish peroxydase was used to quantify the amounts of eotaxin in the solution

[3] = tested on: IL-13; assay: IL-13 ELISA in BAL and lung protein extracts, OVA mouse model; assay type: in vivo
Description: as §1
The left lung was crushed using a Mikro-Dismembrator (Braun Biotech International, Gmbh Melsungen, Germany). For proteins extraction, the crushed lung tissue was incubated overnight at 4° C. in a solution containing 2M urea, 1M NaCl and 50 mM Tris (pH 7.5) and subsequently centrifuged 15 minutes at 16.000×g. The supernatant was stored at −80° C.
as §2
IL-13 was measured by incubation in a wheel coated with a primary antibody specifically dedicated to the recognition of the protein and after rinsing, a second antibody against IL-13, coupled with horse radish peroxydase was used to quantify the amounts of […] in the solution.

[4] = tested on: OVA exposed mice; assay: Peribronchial inflammation score by histology, OVA mouse model; assay type: in vivo; conditions: 1, 7.5 and 50 mM, compared to placebo; FIG. 2
Description: as §1, with “Mice were subjected to inhalation of β-CD, HP-β-CD HP 1, 7.5, 50 mM and HP-β-CD 50 mM 30 minutes before OVA inhalation.” left out
(§3) After BAL, the thorax was opened and the left main bronchus was clamped. The left lung was excised and frozen immediately at −80° C. for protein and mRNA extraction. The right lung was infused with 4 ml paraformaldehyde 4%, embedded in paraffin and used for histology. Sections of 5 μm thickness were cut off from paraffin and were stained with haematoxylin-eosin. The extent of peribronchial inflammation was estimated by a score calculated by quantification of peribronchial inflammatory cells, as previously described by Cataldo D D, Tournoy K G, Vermaelen K et al. in Am J Pathol 2002; 161(2):491-498. A value of 0 was adjudged when no inflammation was detectable, a value of 1 when there was occasionally inflammatory cells, a value of 2 when most bronchi were surrounded by a thin layer (1 to 5 cells) of inflammatory cells and a value of 3 when most bronchi were surrounded by a thick layer (>5 cells) of inflammatory cells. Since 5-7 randomly selected tissue sections per mouse were scored, inflammation scores are expressed as a mean value and can be compared between groups. After Congo Red staining, the eosinophilic infiltration in the airway walls was quantified by manual count and reported to the perimeter of epithelial basement membrane defining an eosinophilic inflammatory score.

[5] = tested on: OVA exposed mice; assay: Peribronchial eosinophil infiltration (Congo Red), OVA mouse model; assay type: in vivo; conditions: FIG. 3
Description: as §1, §3

[6] = tested on: OVA exposed mice; assay: Bronchoalveolar lavage differential cell counts, OVA mouse model of asthma; assay type: in vivo; conditions: for Eosinophils (%) in BAL / Epithelial cells (%) in BAL / Lymphocytes (%) in BAL / Macrophages (%) in BAL / Neutrophils (%) in BAL / Total cells (10^4/ml) in BAL: Table 2
Description: as §1
Immediately after assessment of airway responsiveness, and 24 hours after the last allergen exposure.
Mices were sacrificed and a bronchoalveolar lavage was performed using 4×1 ml PBS-EDTA 0.05 mM (Calbiochem, Darmstadt, Germany) as previously described by Cataldo D D, Tournoy K G, Vermaelen K et al. in Am J Pathol 2002; 161(2):491-498. Cells were recovered by gentle manual aspiration. After centrifugation of bronchoalveolar fluid (BALF) (1200 rpm for 10 minutes, at 4° C.), the supernatant was frozen at −80° C. for protein assessment and the cell pellet was resuspended in 1 ml PBS-EDTA 0.05 mM. The differential cell counts were performed on cytocentrifuged preparations (Cytospin) after staining with Diff-Quick (Dade, Belgium).

## hydroxypropyl-βcyclodextrin [HP-β-CD]
[1]
  Levels of CXCL-1 in lung protein extracts: significantly decreased
[2]
  levels of eotaxin in lung protein extracts: decrease
[3]; 50 mM, FIG. 11
  levels of IL-13 in whole lung protein extracts: significantly decreased
[3]; FIG. 7b
  IL-13 levels in BAL: decreased
[4]
  peribronchial inflammation score: decreased inflammation score
[5]; 50 mM
  peribronchial eosinophil infiltration: decrease reached statistical significance
[5]; 1 and 7.5 mM
  peribronchial eosinophil infiltration: decrease reached statistical significance
[6]; 1, 7.5 and 50 mM inhalation, FIG. 1
  BAL eosinophils: dose dependent decrease
[6]; 1 mM
  Eosinophils (%) in BAL: 34.2 ± 7.705 %
  Epithelial cells (%) in BAL: 25.08 ± 3.413%
  Lymphocytes (%) in BAL: 0.48 ± 0.1869%
  Macrophages (%) in BAL: 39.75 ± 5.427%
  Neutrophils (%) in BAL: 0.36 ± 0.1563%
  Total cells (10^4/ml) in BAL: 74.92 ± 14.396 10^4/ml
[6]; 10 mM
  Eosinophils (%) in BAL: 27.24 ± 4.98 %
  Epithelial cells (%) in BAL: 34.44 ± 3.723%
  Lymphocytes (%) in BAL: 0.21 ± 0.08571%
  Macrophages (%) in BAL: 37.114 ± 3.878%
  Neutrophils (%) in BAL: 0.83 ± 0.5838%
  Total cells (10^4/ml) in BAL: 114.43 ± 33.245 10^4/ml
[6]; 50 mM
  Eosinophils (%) in BAL: 12.18 ± 4.366 %
  Epithelial cells (%) in BAL: 45.04 ± 5.534%
  Lymphocytes (%) in BAL: 0.12 ± 0.12%
  Macrophages (%) in BAL: 41.86 ± 9.043%
  Neutrophils (%) in BAL: 0.72 ± 0.3992%
  Total cells (10^4/ml) in BAL: 37.33 ± 10.683 10^4/ml
[6]; after allergen exposure, inhalation at 50 mM, FIG. 1
  BAL eosinophil counts: significantly decreased
[6]; after inhalation, compared to placebo
  Other inflammatory cells in the BAL: not present in different amounts
